In EP0292169B1, “Substrates for B-galactosidase” (Bayer Corporation, priority 1987, dated 1988):
Where two headings read alike, the source gives them in different places.

Experiments:
[1] = Molar absorptivity of phenolic precursors of substrates; format: physicochemical
Description: The molar absorptivity (εmax) of the phenolic precursors of several substrates of this invention were measured and calculated according to the following formula: [formula] wherein A is the absorbance; b is the path length through the sample; and c is the concentration of solute.
The molar absorptivity of the phenolic precursor of ONPG, the most commonly used prior art substrate for β-galactosidase was likewise measured and calculated for comparative purposes. The aim was to identify phenolic precursors which would provide enhanced molar absorptivity to that of ONPG.

β-galactosidase [2] = target: T1, β-galactosidase (Escherichia coli, UniProt P00722); format: biochemical; details: for Km / V max: calculated from experimental data of Figs. 1 and 2
β-galactosidase [3] = target: T1, β-galactosidase; format: biochemical; details: antibody titration curve, Fig. 3
[4] = Stability in aqueous environment; format: physicochemical
β-galactosidase [5] = target: T1, β-galactosidase; details: available from the literature, cited from earlier work

T1 sequence (P00722 2-1024): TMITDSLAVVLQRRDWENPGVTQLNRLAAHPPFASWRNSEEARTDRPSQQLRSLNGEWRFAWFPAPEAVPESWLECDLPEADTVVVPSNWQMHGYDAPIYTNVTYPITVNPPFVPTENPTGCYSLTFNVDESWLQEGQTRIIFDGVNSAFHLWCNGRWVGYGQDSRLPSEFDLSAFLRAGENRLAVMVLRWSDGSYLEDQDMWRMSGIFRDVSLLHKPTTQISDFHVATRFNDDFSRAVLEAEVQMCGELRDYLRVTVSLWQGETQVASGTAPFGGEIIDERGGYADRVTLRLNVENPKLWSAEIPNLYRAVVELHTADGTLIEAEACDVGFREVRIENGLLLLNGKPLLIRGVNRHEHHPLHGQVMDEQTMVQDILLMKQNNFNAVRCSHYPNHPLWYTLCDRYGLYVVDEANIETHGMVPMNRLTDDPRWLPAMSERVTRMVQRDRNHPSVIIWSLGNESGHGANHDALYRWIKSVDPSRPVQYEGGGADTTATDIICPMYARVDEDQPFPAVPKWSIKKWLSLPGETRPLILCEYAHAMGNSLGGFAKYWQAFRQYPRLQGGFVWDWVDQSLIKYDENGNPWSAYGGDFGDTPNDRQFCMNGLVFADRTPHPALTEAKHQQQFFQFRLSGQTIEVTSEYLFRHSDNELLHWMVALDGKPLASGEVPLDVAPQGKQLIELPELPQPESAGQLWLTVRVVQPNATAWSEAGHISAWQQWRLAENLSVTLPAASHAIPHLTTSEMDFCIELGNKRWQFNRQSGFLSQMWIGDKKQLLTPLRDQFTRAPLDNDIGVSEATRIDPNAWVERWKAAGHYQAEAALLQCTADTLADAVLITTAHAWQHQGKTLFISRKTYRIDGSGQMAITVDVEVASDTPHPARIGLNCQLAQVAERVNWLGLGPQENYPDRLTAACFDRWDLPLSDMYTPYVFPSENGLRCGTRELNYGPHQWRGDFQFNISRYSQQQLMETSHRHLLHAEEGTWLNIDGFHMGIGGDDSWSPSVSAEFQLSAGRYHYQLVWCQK

In the case of `O=[N+]([O-])c1cc(Cl)c(O)c(Cl)c1` [2,6-dichloro-4-nitrophenol], the “Molar Absorptivity (εmax)” value ([1]; 405 nm, pH 7.5) is reported as 15.9 (405 nm, pH 7.5).
For `O=[N+]([O-])c1cccc(Cl)c1O` [2-chloro-6-nitrophenol], the “Molar Absorptivity (εmax)” value ([1]; 405 nm, pH 7.5) was 4.6 (405 nm, pH 7.5).
In the case of `O=[N+]([O-])c1ccc(O)c(Cl)c1` [CLNP, 2-chloro-4-nitrophenol], the “Molar Absorptivity (εmax)” value ([1]; 405 nm, pH 7.5) is reported as 16.9 (405 nm, pH 7.5).
In the case of `O=[N+]([O-])c1ccc(O[C@@H]2O[C@H](CO)[C@H](O)[C@H](O)[C@H]2O)c(Cl)c1` [CLNPG, 2-chloro-4-nitrophenyl-β-D-galactopyranoside], the “V max relative to that of ONPG” value (β-galactosidase [2]; CLNPG versus ONPG) is reported as “at least four times”, the Km (β-galactosidase [2]) is reported as 200 µM and the V max (β-galactosidase [2]) is reported as 0.13 ΔA/Min. For the same compound, the “increase in assay sensitivity over ONPG” value (β-galactosidase [3]) was “four-fold”.
With `O=[N+]([O-])c1ccc(O)c([N+](=O)[O-])c1` [DNP, 2,4-dinitro phenol] the “Molar Absorptivity (εmax)” value ([1]; pH 7.5) was 10.7 (405 nm, pH 7.5).
In the case of `O=[N+]([O-])c1ccc(O[C@@H]2O[C@H](CO)[C@H](O)[C@H](O)[C@H]2O)c([N+](=O)[O-])c1` [DNPG, 2,4-dinitro-phenyl-β-D-galactopyranoside], the “stability in aqueous environment” value [4] is listed as “unstable”, the Km (β-galactosidase [5]) is listed as 220 µM and the V max (β-galactosidase [5]) is listed as 0.13 ΔA/Min.
For `O=[N+]([O-])c1ccccc1O` [ONP, orthonitro phenol, reference compound], the “Molar Absorptivity (εmax)” value ([1]; 405 nm, pH 7.5) was 3.0 (405 nm, pH 7.5).
In the case of `O=[N+]([O-])c1ccccc1O[C@@H]1O[C@H](CO)[C@H](O)[C@H](O)[C@H]1O` [ONPG, O-nitrophenyl-β-D-galactopyranoside], the V max (β-galactosidase [5]) is given as 0.03 ΔA/Min and the Km (β-galactosidase [5]; read-out: Km) is given as 170 µM.
For `Cc1cc(C2(c3cc(C)c(O)c(Br)c3)OS(=O)(=O)c3ccccc32)cc(Br)c1O` [bromocresol purple], the “Molar Absorptivity (εmax)” value ([1]; 585 nm, pH 8.5) was 50.7 (585 nm, pH 8.5).
With `Cc1cc(O)ccc1C1(c2ccc(O)cc2C)OS(=O)(=O)c2ccccc21` [metacresol purple] the “Molar Absorptivity (εmax)” value ([1]; 575 nm, pH 8.5) was 8.4 (575 nm, pH 8.5).
In the case of “bromocresol purple-β-D-galactopyranoside [BCPG, reference compound]”, the V max (β-galactosidase [2]) is reported as 0.11 ΔA/Min and the Km (β-galactosidase [2]; read-out: Km) is reported as 8000 µM.
